Entries after “also recorded” stand apart in the source; their conditions may differ.
Key:
[1] = test system: pAkt S473; experiment: Akt S473 phosphorylation western blot in skin equivalents; type: cell-based, human; details: 1p M, 5 days
Description: (§1) In order to shed light into the mechanism of action of Peptide 14 and similar Peptide 13, Akt S473 phosphorylation (FIG. 8, panel A), senescence associated β-galactosidase staining (FIG. 8, panel B), as well as mRNA expression (FIG. 8, panel C) were investigated. For Akt S473 phosphorylation analysis using western blotting, human primary fibroblasts and keratinocytes were used. These cells were used to build human skin equivalents, which were kept in a 5% CO2, 37° C. and 95% humidity atmosphere air liquid interface. Then, skin equivalents were treated with 1p M of either Peptide 14 or Peptide 13 for 5 days, and protein analysis was performed on the skin equivalents. Protein was isolated and quantified. Equal amounts of protein were loaded in polyacrylamide gels and transferred into a nitrocellulose membrane. […] Relative pAkt S473/GAPDH signal was compared between treated and non-treated samples. For senescence associated B-galactosidase staining experiments, fibroblasts were used. […] Total RNA was isolated, samples were reverse transcribed, and mRNA expression of GAPDH, sirtuin 6 (SIRT6), BLM, and exonuclease 1 (EXO1) genes were determined using qPCR. […] CT values were analyzed using the 2^−ΔΔCt method. […] Data was analyzed using a T-test. Statistical significance was determined as p values equal or lower than 0.05 (FIG. 8).

[2] = test system: fibroblasts; experiment: SA B-galactosidase staining after UVB (Example 8); type: cell-based, human; details: 48 hours after 2 x 0.05 J/cm^2
Description: as §1

[3] = test system: human skin equivalents (donors); experiment: Histology score of human skin equivalents (Example 16); type: cell-based; details: 0.01% w/v (or 1 μM), 5 days; control 21.00
Description: To test the effect of Peptide 13 and Peptide 14 treatment on human skin models and the skin morphology, human primary fibroblasts and keratinocytes isolated from healthy elder donors were used to build human skin equivalents. The skin equivalents were treated with 0.01% w/v (or 1 μM) of Peptide 13 or Peptide 14 for 5 days. The negative controls were treated with formulation only. After the 5-day culture, the skin equivalents were analyzed for epidermal thickness, which was quantified according to total epidermal area. Quality assessment based several parameters was performed by blind analysts. […] A minimal score of 19 was required for batch use. This score was validated internally and shown to decrease with age/senescence of the skin equivalents or cultured cells. Three independent experiments were performed with three technical replicates. Data were analyzed using a t-test. Statistical significance was determined as p-values equal or lower than 0.05. The statistically significant p-values are noted by * for p<0.05; ** for p<0.01; *** for p<0.001; **** for p<0.0001 between the groups.

[4] = test system: 3D skin equivalent (elder donors); experiment: Relative mRNA expression in 3D skin equivalents versus Retinoic Acid; type: cell-based, human; details: 1p M peptide vs 20 μM Retinoic Acid
Description: 3D skin equivalent sections of samples built with cells from elder donors ([…]) were treated with 1p M Peptide 14 or Peptide 13, or 20 μM Retinoic Acid (RA) and assessed for the effect of the various treatments of various markers of senescence, aging, and health.
Data are presented as 2-ddCt normalized to GAPDH and untreated control. *p<0.05. Peptide 13 and Peptide 14-treated samples generally had similar relative mRNA expression levels for p16, BLIMP1, ZYG11B, IL-8, and Ki-67 in the epidermal layer, and for p16, MMP1, HAS2, IL-8, and Ki-67 in the dermal layer. Peptide 13 and Peptide 14-treated samples generally had lower relative mRNA expression levels than RA-treated samples for p16, BLIMP1, ZYG11B, IL-8, in the epidermal layer and for p16, MMP1, IL-8, and Ki-67 in the dermal layer. Peptide 13 and Peptide 14-treated samples generally had higher relative mRNA expression levels than RA-treated samples for Ki-67 in the epidermal layer and for HAS2 for the dermal layer. Peptide 13 and Peptide 14-treated samples had similar relative mRNA expression levels as RA-treated samples for ZIC1 and Ki-67 for dermal layer.

Sequence: ATAKAWLKGI [Peptide 13]
- pAkt S473, dermal samples [1]: decreased
- SA B-galactosidase staining in UVB-exposed samples [2]: decreased staining
- mean of histology scores (maximum 28) [3]: 23.44
- relative mRNA BLIMP1, epidermal layer, vs RA-treated samples [4]: lower
- relative mRNA HAS2, dermal layer, vs RA-treated samples [4]: higher
- relative mRNA IL-8, dermal layer, vs RA-treated samples [4]: lower
- relative mRNA IL-8, epidermal layer, vs RA-treated samples [4]: lower
- relative mRNA Ki-67, dermal layer, vs RA-treated samples [4]: lower; also recorded: similar
- relative mRNA Ki-67, epidermal layer, vs RA-treated samples [4]: higher
- relative mRNA MMP1, dermal layer, vs RA-treated samples [4]: lower
- relative mRNA ZIC1 vs RA-treated samples [4]: similar
- relative mRNA ZYG11B, epidermal layer, vs RA-treated samples [4]: lower
- relative mRNA p16, dermal layer, vs RA-treated samples [4]: lower
- relative mRNA p16, epidermal layer, vs RA-treated samples [4]: lower

— patent publication US20250352608A1, “POLYPEPTIDES HAVING ANTI-INFLAMMATORY EFFECTS AND USES THEREOF” (OneSkin, Inc., priority 2020, published 2025)
